As usually defined, the IC50 is the concentration at which inhibition is half-maximal.

The structures appear in SMILES notation. “And” between values parts separate entries of the source, which are not always exact repeats. Equal values may be shown once.

recombinant mTOR, sequence (P42345 1362-2549): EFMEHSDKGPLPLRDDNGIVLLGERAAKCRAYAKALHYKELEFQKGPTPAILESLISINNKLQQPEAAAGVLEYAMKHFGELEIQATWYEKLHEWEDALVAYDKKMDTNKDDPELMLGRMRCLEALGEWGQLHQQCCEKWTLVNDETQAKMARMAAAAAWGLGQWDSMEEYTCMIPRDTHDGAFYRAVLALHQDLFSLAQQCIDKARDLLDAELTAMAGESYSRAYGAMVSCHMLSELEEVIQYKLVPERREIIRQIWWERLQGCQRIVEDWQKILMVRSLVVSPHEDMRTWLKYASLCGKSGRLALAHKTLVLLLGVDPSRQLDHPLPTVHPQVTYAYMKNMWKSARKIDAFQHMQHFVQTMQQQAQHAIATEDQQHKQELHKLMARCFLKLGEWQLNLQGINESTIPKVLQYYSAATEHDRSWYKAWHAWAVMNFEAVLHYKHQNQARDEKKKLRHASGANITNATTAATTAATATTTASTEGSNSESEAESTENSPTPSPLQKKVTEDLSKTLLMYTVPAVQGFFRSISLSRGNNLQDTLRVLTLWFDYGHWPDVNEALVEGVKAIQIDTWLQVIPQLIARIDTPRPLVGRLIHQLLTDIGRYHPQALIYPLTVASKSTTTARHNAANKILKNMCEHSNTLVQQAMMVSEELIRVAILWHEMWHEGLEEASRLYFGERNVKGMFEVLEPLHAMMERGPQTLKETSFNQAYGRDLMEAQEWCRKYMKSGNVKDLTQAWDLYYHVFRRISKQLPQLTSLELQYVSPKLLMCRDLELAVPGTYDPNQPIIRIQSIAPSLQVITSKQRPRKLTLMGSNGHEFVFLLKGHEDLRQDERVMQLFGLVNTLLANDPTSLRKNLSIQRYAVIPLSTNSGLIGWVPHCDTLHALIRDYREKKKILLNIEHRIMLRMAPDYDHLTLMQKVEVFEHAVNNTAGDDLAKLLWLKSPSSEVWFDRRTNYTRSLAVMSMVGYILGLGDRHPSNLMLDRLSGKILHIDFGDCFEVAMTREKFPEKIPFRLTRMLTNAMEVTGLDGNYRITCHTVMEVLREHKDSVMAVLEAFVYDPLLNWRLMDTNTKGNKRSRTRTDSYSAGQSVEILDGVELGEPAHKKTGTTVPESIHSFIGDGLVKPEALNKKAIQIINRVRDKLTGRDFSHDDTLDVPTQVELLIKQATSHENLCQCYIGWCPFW
T1 sequence (P42336 whole entry, canonical isoform): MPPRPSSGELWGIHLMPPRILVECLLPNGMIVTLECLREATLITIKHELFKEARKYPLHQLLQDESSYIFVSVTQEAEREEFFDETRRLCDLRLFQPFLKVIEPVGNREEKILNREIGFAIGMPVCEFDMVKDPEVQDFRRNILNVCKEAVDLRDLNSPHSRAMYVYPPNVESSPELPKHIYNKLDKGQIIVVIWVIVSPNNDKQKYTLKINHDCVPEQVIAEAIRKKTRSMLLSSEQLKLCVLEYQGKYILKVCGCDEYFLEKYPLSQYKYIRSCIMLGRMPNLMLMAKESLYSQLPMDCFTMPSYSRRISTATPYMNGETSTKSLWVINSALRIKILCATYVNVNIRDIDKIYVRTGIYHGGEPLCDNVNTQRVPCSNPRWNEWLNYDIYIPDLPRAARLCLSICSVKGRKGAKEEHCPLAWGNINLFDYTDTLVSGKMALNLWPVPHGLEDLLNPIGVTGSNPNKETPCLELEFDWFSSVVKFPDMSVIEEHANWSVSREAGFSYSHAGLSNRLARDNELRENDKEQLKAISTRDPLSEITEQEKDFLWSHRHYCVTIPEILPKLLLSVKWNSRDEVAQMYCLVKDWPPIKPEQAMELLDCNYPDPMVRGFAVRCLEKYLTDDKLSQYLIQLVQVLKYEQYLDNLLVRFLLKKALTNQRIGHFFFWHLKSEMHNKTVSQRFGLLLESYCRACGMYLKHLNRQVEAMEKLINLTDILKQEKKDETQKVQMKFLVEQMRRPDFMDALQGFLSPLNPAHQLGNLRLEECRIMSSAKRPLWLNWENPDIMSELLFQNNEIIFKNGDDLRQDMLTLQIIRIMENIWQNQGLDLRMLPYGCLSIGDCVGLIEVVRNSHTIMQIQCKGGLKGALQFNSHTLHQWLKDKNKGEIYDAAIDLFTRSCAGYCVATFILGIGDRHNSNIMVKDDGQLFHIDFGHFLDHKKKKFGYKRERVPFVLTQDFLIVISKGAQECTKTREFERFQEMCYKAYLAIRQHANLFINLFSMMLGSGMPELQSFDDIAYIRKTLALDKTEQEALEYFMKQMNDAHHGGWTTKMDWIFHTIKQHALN
T1 sequence (P27986 2-724, further chain): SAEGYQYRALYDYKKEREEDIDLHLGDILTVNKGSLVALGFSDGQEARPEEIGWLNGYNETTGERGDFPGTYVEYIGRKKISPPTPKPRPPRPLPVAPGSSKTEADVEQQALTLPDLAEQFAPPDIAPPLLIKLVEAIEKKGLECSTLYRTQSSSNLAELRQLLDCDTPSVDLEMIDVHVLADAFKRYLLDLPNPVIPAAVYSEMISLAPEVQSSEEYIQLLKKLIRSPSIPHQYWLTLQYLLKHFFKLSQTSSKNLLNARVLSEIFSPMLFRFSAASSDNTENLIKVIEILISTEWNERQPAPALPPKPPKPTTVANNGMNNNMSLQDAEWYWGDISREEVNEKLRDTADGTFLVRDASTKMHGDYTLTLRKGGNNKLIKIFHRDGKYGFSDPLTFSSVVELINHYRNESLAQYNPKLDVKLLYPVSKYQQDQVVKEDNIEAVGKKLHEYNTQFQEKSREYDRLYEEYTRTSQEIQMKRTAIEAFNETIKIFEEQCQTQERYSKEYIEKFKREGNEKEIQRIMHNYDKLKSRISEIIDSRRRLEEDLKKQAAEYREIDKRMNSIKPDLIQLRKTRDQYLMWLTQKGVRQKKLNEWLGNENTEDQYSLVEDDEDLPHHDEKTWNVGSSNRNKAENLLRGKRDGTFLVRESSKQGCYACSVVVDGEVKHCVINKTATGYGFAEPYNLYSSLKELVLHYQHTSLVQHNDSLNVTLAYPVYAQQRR

The first assay addresses recombinant mTOR (Homo sapiens, UniProt P42345). Description: In vitro mTOR kinase assay, Test (a)(i) (AlphaScreen). Format: biochemical. The settings on record: enzyme assay; values may represent the average of two or more measurements; read-out: Test (a)(i) IC50. Here is the method:
(a)(i) In Vitro mTOR Kinase Assay
The HEK293 FLAG-tagged mTOR (1362-2549) stable cell line was routinely maintained at 37° C. with 5% CO2 up to a confluency of 70-90% in Dulbecco's modified Eagle's growth medium (DMEM; Invitrogen Limited, Paisley, UK Catalogue No. 41966-029) containing 10% heat-inactivated foetal calf serum (FCS; Sigma, Poole, Dorset, UK, Catalogue No. F0392), 1% L-glutamine (Gibco, Catalogue No. 25030-024) and 2 mg/ml Geneticin (G418 sulfate; Invitrogen Limited, UK Catalogue No. 10131-027). Following expression in the mammalian HEK293 cell line, expressed protein was purified using the FLAG epitope tag using standard purification techniques.
A 30 μl mixture of recombinant purified mTOR enzyme, 1 μM biotinylated peptide substrate (Biotin-Ahx-[…]NH2; Bachem UK Ltd), ATP (20 μM) and a buffer solution [comprising Tris-HCl pH7.4 buffer (50 mM), EGTA (0.1 mM), bovine serum albumin (0.5 mg/mL), DTT (1.25 mM) and manganese chloride (10 mM)] was agitated at room temperature for 90 minutes.
These assay solutions were incubated for 2 hours at room temperature.
Phosphorylated biotinylated peptide is formed in situ as a result of mTOR mediated phosphorylation. The phosphorylated biotinylated peptide that is associated with AlphaScreen Streptavidin donor beads forms a complex with the p70 S6 Kinase (T389) 1A5 Monoclonal Antibody that is associated with Alphascreen Protein A acceptor beads. […] Accordingly, the presence of mTOR kinase activity results in an assay signal. In the presence of an mTOR kinase inhibitor, signal strength is reduced.
On the technique in general: Bead proximity is the source of the signal in Alpha formats.
Turning to `C[C@H]1COCCN1c1cc(CS(C)(=O)=O)nc(-c2ccc3cc[nH]c3c2)n1` [Example 35, 6-[4-[(3S)-3-Methylmorpholin-4-yl]-6-(methylsulfonylmethyl)pyrimidin-2-yl]-1H-indole], the IC50 is 478 nM.
The same measure, in the same setting: the figure for `C[C@H]1COCCN1c1cc(CS(C)(=O)=O)nc(-c2ccc3cc(C(N)=O)[nH]c3c2)n1` [Example 38, 6-[4-[(3S)-3-Methylmorpholin-4-yl]-6-(methylsulfonylmethyl)pyrimidin-2-yl]-1H-indole-2-carboxamide] is 5350 nM; for `C[C@H]1COCCN1c1cc(CS(C)(=O)=O)nc(-c2cccc(-c3cn[nH]c3)c2)n1` [Example 32, 4-[(3S)-3-Methylmorpholin-4-yl]-6-(methylsulfonylmethyl)-2-[3-(1H-pyrazol-4-yl)phenyl]pyrimidine] it is 437 nM.
As for `C[C@H]1COCCN1c1cc(CS(C)(=O)=O)nc(-c2ccc3[nH]ccc3c2)n1` [Example 24], the IC50 was 303 nM.
`CCC(C)S(=O)(=O)Cc1cc(N2CCOC[C@@H]2C)nc(-c2ccc3[nH]ccc3c2)n1` (stereo partly drawn) [Example 26, 5-[4-(Butan-2-ylsulfonylmethyl)-6-[(3S)-3-methylmorpholin-4-yl]pyrimidin-2-yl]-1H-indole]: the 50% inhibitory concentration (IC50) came out at 1380 nM.
On the same count and under the same terms, the figure for `C[C@H]1COCCN1c1cc(CS(=O)(=O)c2ccccc2)nc(-c2cccc3[nH]ccc23)n1` [Example 44, 4-[4-(Benzenesulfonylmethyl)-6-[(3S)-3-methylmorpholin-4-yl]pyrimidin-2-yl]-1H-indole] is 366 nM.
`COc1ccc(C(=O)Nc2cc(N3CCOC[C@@H]3C)nc(N3CCOC[C@@H]3C)n2)cc1C(F)(F)F` [Example 2, N-[2,6-Bis[(3S)-3-methylmorpholin-4-yl]pyrimidin-4-yl]-4-methoxy-3-(trifluoromethyl)benzamide]: the IC50 worked out at 236 nM.
`CCC(C)[S+]([O-])Cc1cc(N2CCOC[C@H]2C)nc(-c2ccc3[nH]ccc3c2)n1` (stereo partly drawn) [Example 27, 5-[4-(butan-2-ylsulfinylmethyl)-6-[(3R)-3-methylmorpholin-4-yl]pyrimidin-2-yl]-1H-indole]: the 50% inhibitory concentration (IC50) was 1170 nM.
On to `COc1cccc(C(=O)Nc2cc(N3CCOC[C@@H]3C)nc(N3CCOC[C@@H]3C)n2)c1` [Example 3, N-[2,6-Bis[(3S)-3-methylmorpholin-4-yl]pyrimidin-4-yl]-3-methoxy-benzamide], for which the half-maximal inhibitory concentration (IC50) is 234 nM.
The same measure, in the same setting: the figure for `C[C@H]1COCCN1c1cc(C(C)(C)S(C)(=O)=O)nc(-c2cccc3[nH]ccc23)n1` [Example 42, 4-[4-[(3S)-3-methylmorpholin-4-yl]-6-(2-methylsulfonylpropan-2-yl)pyrimidin-2-yl]-1H-indole] is 335 nM; for `C[C@H]1COCCN1c1cc(N2CCOC[C@@H]2C)nc(NC(=O)c2ccc(NC(=O)Nc3ccccc3)cc2)n1` [Example 18, N-[4,6-Bis[(3S)-3-methylmorpholin-4-yl]pyrimidin-2-yl]-4-(phenylcarbamoylamino)benzamide] it is 1120 nM.
Still for that read-out and setting: the figure for `COc1ccc(C(=O)Nc2nc(N3CCOC[C@@H]3C)cc(N3CCOC[C@@H]3C)n2)cn1` [Example 6, N-[4,6-Bis[(3S)-3-methylmorpholin-4-yl]pyrimidin-2-yl]-6-methoxy-pyridine-3-carboxamide] is 2680 nM; for `C[C@H]1COCCN1c1cc(CS(=O)(=O)c2ccccc2)nc(-c2ccc3cc[nH]c3c2)n1` [Example 47, 6-[4-(benzenesulfonylmethyl)-6-[(3S)-3-methylmorpholin-4-yl]pyrimidin-2-yl]-1H-indole] it is 512 nM.
In the case of `COc1ccc(C(=O)Nc2nc(N3CCOC[C@@H]3C)cc(N3CCOC[C@@H]3C)n2)cc1F` [Example 16, N-[4,6-Bis[(3S)-3-methylmorpholin-4-yl]pyrimidin-2-yl]-3-fluoro-4-methoxy-benzamide], the IC50 came out at 2470 nM.
Turning to `CC(C)S(=O)(=O)Cc1cc(N2CCOC[C@H]2C)nc(-c2ccc3[nH]ccc3c2)n1` [Example 28, 5-[4-[(3R)-3-methylmorphlin-4-yl]-6-(propan-2-ylsulfonylmethyl)pyrimidin-2-yl]-1H-indole], the 50% inhibitory concentration (IC50) came out at 626 nM.
On the same count and under the same terms, to `C[C@H]1COCCN1c1cc(CS(C)(=O)=O)nc(-c2ccc(-c3cn[nH]c3)cc2)n1` [Example 31, 4-[(3S)-3-Methylmorpholin-4-yl]-6-(methylsulfonylmethyl)-2-[4-(1H-pyrazol-4-yl)phenyl]pyrimidine] belongs 990 nM; to `CC(=O)Nc1cc(C(=O)Nc2cc(N3CCOC[C@@H]3C)nc(N3CCOC[C@@H]3C)n2)ccn1` [Example 10, 2-Acetamido-N-[2,6-bis[(3S)-3-methylmorpholin-4-yl]pyrimidin-4-yl]pyridine-4-carboxamide], 26400 nM.

The same assay, now with this note: single values measured on two occasions; read-out: IC50 versus mTOR kinase, Test (a)(i).
In the case of `C[C@H]1COCCN1c1cc(CS(C)(=O)=O)nc(-c2ccc3cc[nH]c3c2)n1` [Example 35, 6-[4-[(3S)-3-Methylmorpholin-4-yl]-6-(methylsulfonylmethyl)pyrimidin-2-yl]-1H-indole], the IC50 is 566 nM and 404 nM.

In another assay the test system is Serine 473 in Akt. Description: In vitro phospho-Ser473 Akt assay, Test (c). The class given is cell-based. Particulars: Homo sapiens; MDA-MB-468 cells; read-out: IC50 versus Serine 473 in Akt, Test (c). Here is the method:
(c) In Vitro phospho-Ser473 Akt Assay
This assay determines the ability of test compounds to inhibit phosphorylation of Serine 473 in Akt as assessed using Acumen Explorer technology (Acumen Bioscience Limited), a plate reader that can be used to rapidly quantitate features of images generated by laser-scanning.
A MDA-MB-468 human breast adenocarcinoma cell line (LGC Promochem, Teddington, Middlesex, UK, Catalogue No. HTB-132) was routinely maintained at 37° C. with 5% CO2 up to a confluency of 70-90% in DMEM containing 10% heat-inactivated FCS and 1% L-glutamine.
For the assay, the cells were detached from the culture flask using ‘Accutase’ (Innovative Cell Technologies Inc., San Diego, Calif., USA; Catalogue No. AT104) using standard tissue culture methods and resuspended in media to give 1.7×10^5 cells per mL. […]
All subsequent aspiration and wash steps were carried out using a Tecan 96 well plate washer (aspiration speed 10 mm/sec). […] An aliquot of PBS (50 μl) was added to each well and the plates were sealed with black plate sealers and the fluorescence signal was detected and analysed.
Fluorescence dose response data obtained with each compound were analysed and the degree of inhibition of Serine 473 in Akt was expressed as an IC50 value.
As to `C[C@H]1COCCN1c1cc(CS(C)(=O)=O)nc(-c2ccc3cc[nH]c3c2)n1` [Example 35, 6-[4-[(3S)-3-Methylmorpholin-4-yl]-6-(methylsulfonylmethyl)pyrimidin-2-yl]-1H-indole], the concentration for half-maximal inhibition (IC50) was determined as 3360 nM.

Another assay has as its target T1, PI3K.
T1 construct: full length DNA of each of the p110α, p110β and p110δ Type Ia human PI3K p110 isoforms
Put plainly: In vitro PI3K enzyme assay, Test (b)(i) (AlphaScreen). The class given is biochemical, human. The settings on record: single values measured on two occasions; isoform (p110α or p110γ) not clearly stated; read-out: IC50 versus PI3K, Test (b)(i). The source says: (b)(i) In Vitro PI3K Enzyme Assay
On to `C[C@H]1COCCN1c1cc(CS(C)(=O)=O)nc(-c2ccc3cc[nH]c3c2)n1` [Example 35, 6-[4-[(3S)-3-Methylmorpholin-4-yl]-6-(methylsulfonylmethyl)pyrimidin-2-yl]-1H-indole], for which the 50% inhibitory concentration (IC50) is 37000 nM.

The values are drawn from US20100227858A1, “TRISUBSTITUTED PYRIMIDINE DERIVATIVES FOR THE TREATMENT OF PROLIFERATIVE DISEASES” (ASTRAZENECA AB, priority 2007, published 2010).
